Key:
[1] = test system: MIA-induced osteoarthritic pain in rats; test: Osteoarthritic (OA) pain induced by sodium monoiodoacetate (MIA), hind limb grip force; format: in vivo, rat; conditions: male Sprague Dawley rats, grip force 20 days after MIA injection
Method: Osteoarthritic (OA) Pain Induced by Sodium Monoiodoacetate (MIA)
Pain behavior was assessed by measurement of hind limb grip force (GF) in adult osteoarthritic rats. Male Sprague Dawley rats, obtained from Charles River Laboratories, (Wilmington, Mass.), weighing 150-175 g, were injected in the unilateral knee join with a single intra-articular injection of sodium monoiodoacetate (MIA, 3 mg/rat). All rats were tested at 20 days following MIA injection. A behavioral measure of activity-induced pain was carried out. Measurements of the peak hind limb grip force were conducted by recording the maximum compressive force (CFmax), in grams of force, exerted on a hind limb strain gauge setup, in a commercially available grip force measurement system (Columbus Instruments, Columbus, Ohio).
During testing, each rat was gently restrained by grasping it around its rib cage and then allowed to grasp the wire mesh frame attached to the strain gauge. The experimenter then moved the animal in a rostral-to-caudal direction until the grip was broken. Each rat was sequentially tested twice at an approximately 2-3 minute interval to obtain a raw mean grip force (CFmax). This raw mean grip force data was in turn converted to a maximum hindlimb cumulative compressive force (CFmax), as the grams of force/kg of body weight, for each animal.
For evaluating the compound effects, the hind limb grip force was conducted 20 days following the intra-articular injection of MIA. A group of age-matched nave (not injected with MIA) animals was added as a comparator to the drug-dosed groups. The vehicle control response for each group of MIA-treated animals was defined as the 0% response (0% effect), whereas the nave control group was defined as the normal response and as 100% effect. The % effect for each dose group was expressed as % return of response to normalcy, compared to the nave group. A percent maximal possible effect (% MPE) of testing compound was calculated according to the formula: (Treatment CFmax−Vehicle CFmax)/Vehicle CFmax]×100). Higher % effect numbers indicate increased relief from the pain in the model, with 100% indicating a return to the level of response seen in normal (non-osteoarthritic) animals. All experiments evaluating drug effects in this model were conducted in a randomized blinded fashion.
The animals were housed in Association for Assessment and Accreditation of Laboratory Animal Care (AAALAC) approved facilities at AbbVie Inc. in a temperature-regulated environment under a controlled 12-hour light-dark cycle, with lights on at 6:00 a.m. Food and water were available ad libitum at all times except during testing. All testing was done following procedures outlined in protocols approved by AbbVie Inc.'s Institutional Animal Care and Use Committee.

[2] = molecular target: human Nav1.7 (Homo sapiens (Human), UniProt Q15858); test: FRET-based membrane potential assay, recombinant human sodium channel Nav1.7; format: cell-based; conditions: HEK293 cells stably expressing recombinant human Nav1.7; depolarization with veratridine (EC80) + scorpion venom
Chain of human Nav1.7 (Q15858 whole entry): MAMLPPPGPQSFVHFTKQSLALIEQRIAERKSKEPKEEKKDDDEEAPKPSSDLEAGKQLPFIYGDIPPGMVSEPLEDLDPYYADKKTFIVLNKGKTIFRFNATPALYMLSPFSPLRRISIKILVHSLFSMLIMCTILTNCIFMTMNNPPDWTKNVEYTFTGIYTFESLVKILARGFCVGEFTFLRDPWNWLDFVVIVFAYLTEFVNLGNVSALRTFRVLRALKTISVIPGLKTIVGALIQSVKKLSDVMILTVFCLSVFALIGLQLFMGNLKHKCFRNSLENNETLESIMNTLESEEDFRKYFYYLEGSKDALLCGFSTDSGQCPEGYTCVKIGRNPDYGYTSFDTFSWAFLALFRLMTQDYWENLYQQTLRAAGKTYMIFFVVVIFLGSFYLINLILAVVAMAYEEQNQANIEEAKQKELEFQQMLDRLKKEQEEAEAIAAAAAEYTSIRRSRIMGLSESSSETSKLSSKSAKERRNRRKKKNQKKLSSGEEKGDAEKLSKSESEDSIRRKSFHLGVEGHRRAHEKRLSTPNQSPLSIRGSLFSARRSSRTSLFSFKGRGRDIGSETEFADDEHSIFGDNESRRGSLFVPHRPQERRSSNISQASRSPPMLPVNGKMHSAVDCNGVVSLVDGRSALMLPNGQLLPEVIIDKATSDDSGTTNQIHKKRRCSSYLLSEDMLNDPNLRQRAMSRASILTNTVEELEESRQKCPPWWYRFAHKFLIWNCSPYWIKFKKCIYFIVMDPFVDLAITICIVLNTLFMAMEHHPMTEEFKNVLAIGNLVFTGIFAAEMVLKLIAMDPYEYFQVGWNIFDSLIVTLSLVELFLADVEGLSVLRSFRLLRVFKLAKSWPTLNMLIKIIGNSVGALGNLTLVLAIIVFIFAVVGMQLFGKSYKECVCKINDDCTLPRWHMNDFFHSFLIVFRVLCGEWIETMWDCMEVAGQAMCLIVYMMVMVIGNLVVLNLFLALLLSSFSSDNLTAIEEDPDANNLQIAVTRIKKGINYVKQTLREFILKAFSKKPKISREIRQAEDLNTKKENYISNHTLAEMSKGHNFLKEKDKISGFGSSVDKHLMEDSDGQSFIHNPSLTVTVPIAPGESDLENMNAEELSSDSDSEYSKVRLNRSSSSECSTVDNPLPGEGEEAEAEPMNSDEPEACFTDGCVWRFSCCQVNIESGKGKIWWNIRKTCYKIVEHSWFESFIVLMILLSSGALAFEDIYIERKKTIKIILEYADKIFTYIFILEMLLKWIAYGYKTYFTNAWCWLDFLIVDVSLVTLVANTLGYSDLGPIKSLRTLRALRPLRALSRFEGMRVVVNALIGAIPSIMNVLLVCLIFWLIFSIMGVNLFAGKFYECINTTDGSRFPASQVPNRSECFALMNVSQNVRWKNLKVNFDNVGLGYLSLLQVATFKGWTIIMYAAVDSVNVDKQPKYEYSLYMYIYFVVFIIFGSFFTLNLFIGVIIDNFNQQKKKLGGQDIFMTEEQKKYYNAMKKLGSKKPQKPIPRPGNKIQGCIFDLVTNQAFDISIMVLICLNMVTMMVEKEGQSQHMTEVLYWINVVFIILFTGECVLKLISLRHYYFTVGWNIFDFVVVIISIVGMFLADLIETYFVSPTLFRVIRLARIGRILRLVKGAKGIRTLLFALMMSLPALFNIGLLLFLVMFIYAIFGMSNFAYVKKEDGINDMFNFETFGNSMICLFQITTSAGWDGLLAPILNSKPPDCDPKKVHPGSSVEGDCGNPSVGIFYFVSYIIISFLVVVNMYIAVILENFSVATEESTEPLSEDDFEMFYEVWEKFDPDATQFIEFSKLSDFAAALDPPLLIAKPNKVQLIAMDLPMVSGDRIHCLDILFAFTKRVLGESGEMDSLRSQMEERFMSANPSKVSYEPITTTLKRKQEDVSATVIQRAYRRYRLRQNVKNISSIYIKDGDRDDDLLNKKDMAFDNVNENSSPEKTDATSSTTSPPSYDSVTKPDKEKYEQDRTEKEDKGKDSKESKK
In short: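 IC50 derived by four-parameter Hill fit of percent inhibition of depolarization, measured as peak F440-480/F565-625 ratio over baseline. Stable human Nav1.7 HEK293 cells, dye-loaded with CC2-DMPE and DiSBAC2(3)/VABSC-1 at room temperature, received compound 3 min ahead of veratridine (EC80) plus scorpion venom.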

[3] = molecular target: human Nav1.8 (Homo sapiens (Human), UniProt Q9Y5Y9); test: FRET-based membrane potential assay, recombinant human sodium channel Nav1.8; format: cell-based; conditions: HEK293 cells stably expressing recombinant human Nav1.8; depolarization with veratridine (EC80) + scorpion venom
Chain of human Nav1.8 (Q9Y5Y9 whole entry): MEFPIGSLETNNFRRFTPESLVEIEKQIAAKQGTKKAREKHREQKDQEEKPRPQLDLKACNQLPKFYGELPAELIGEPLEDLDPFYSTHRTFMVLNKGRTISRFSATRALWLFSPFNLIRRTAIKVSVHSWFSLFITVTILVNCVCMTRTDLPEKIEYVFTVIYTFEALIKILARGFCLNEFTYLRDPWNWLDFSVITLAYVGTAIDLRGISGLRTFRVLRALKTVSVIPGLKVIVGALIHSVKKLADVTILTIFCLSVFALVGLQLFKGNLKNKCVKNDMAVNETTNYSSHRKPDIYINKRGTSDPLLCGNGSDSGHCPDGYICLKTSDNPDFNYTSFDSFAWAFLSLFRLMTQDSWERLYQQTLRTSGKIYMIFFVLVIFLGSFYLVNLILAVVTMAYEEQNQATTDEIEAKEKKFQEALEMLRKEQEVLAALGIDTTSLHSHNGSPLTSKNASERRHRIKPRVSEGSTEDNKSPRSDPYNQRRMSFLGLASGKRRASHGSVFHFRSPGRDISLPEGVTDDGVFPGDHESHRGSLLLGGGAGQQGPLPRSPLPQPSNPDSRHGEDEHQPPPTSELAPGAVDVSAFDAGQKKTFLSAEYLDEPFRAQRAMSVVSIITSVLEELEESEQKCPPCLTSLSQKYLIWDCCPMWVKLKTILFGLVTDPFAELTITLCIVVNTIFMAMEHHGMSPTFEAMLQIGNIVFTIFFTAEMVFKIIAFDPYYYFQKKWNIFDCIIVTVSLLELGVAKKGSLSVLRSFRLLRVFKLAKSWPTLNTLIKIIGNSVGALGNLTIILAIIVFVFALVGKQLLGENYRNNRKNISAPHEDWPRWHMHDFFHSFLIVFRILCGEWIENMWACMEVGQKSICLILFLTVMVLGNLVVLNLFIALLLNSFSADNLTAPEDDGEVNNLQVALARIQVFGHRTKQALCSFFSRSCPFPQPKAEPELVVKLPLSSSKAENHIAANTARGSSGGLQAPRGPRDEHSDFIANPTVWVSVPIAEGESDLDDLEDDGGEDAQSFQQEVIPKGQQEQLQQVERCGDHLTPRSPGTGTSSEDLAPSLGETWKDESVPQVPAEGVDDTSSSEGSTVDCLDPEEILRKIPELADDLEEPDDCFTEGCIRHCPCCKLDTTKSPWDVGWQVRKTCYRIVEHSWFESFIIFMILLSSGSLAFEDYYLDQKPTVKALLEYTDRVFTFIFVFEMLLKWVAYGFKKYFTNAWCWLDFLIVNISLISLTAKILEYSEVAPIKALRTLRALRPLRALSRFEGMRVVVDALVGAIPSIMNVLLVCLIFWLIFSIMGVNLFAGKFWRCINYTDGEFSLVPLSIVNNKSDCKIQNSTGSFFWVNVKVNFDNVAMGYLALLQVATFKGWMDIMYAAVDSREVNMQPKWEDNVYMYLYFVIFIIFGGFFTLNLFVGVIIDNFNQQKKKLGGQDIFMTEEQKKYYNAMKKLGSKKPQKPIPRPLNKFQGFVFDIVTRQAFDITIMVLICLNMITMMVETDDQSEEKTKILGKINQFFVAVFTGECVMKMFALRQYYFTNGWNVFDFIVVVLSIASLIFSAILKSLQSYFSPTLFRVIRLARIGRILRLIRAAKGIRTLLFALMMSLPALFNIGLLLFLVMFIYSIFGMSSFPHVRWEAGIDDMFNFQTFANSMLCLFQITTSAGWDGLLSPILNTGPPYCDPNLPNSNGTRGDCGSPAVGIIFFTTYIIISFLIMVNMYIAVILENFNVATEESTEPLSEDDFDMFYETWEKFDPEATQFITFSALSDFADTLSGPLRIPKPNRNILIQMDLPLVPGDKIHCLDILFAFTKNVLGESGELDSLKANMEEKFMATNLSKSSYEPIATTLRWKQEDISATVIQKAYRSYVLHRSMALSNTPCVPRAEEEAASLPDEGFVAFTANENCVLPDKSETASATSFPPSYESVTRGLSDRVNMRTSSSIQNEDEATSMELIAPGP
In short: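 HEK293 cells stably expressing Nav1.8 were loaded with CC2-DMPE/DiSBAC2(3) FRET voltage dyes. Compounds were added 3 min before depolarization with EC80 veratridine plus scorpion venom. The F440-480/F565-625 ratio was read on FLIPR; IC50 came from four-parameter Hill fits.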

SMILES	OA MPE (%) ([1]; OA dose 10 mg/kg)	IC50 [2] [nM]	OA MPE (%) ([1]; OA dose 30 mg/kg)	IC50 [3] [nM]
Cc1cnc(N2CCN(c3cccc4c3cnn4-c3ccccc3F)C2=O)nc1 [Example 33, 1-[1-(2-fluorophenyl)-1H-indazol-4-yl]-3-(5-methylpyrimidin-2-yl)imidazolidin-2-one]	17	624	–	–
Cc1nnc(CN2CCN(c3cccc4c3cnn4-c3ccccc3F)C2=O)o1 [Example 44, 1-[1-(2-fluorophenyl)-1H-indazol-4-yl]-3-[(5-methyl-1,3,4-oxadiazol-2-yl)methyl]imidazolidin-2-one]	–	2940	71	–
O=C1N(c2ccncc2)CCN1c1cccc2c1cnn2-c1ccccc1F [Example 20, 1-[1-(2-fluorophenyl)-1H-indazol-4-yl]-3-(pyridin-4-yl)imidazolidin-2-one]	91	–	–	–
O=C(CN1CCN(c2cccc3c2cnn3-c2ccccc2F)C1=O)N1CCCC(F)C1 (centres unmarked) [Example 17, 1-[1-(2-fluorophenyl)-1H-indazol-4-yl]-3-[2-(3-fluoropiperidin-1-yl)-2-oxoethyl]imidazolidin-2-one]	–	–	91	–
O=C1N(Cc2ncco2)CCN1c1cccc2c1cnn2-c1ccc(F)cc1F [Example 36, 1-[1-(2,4-difluorophenyl)-1H-indazol-4-yl]-3-(1,3-oxazol-2-ylmethyl)imidazolidin-2-one]	27	643	–	–
O=C1N(CC(=O)N2C[C@@H](F)C[C@@H]2c2cc(F)ccc2F)CCN1c1cccc2c1cnn2-c1ccccc1F [Example 18, 1-{2-[(2R,4S)-2-(2,5-difluorophenyl)-4-fluoropyrrolidin-1-yl]-2-oxoethyl}-3-[1-(2-fluorophenyl)-1H-indazol-4-yl]imidazolidin-2-one]	65	578	–	–
Cc1cnc(CN2CCN(c3cccc4c3cnn4-c3ccccc3F)C2=O)o1 [Example 41, 1-[1-(2-fluorophenyl)-1H-indazol-4-yl]-3-[(5-methyl-1,3-oxazol-2-yl)methyl]imidazolidin-2-one]	47	1570	–	–
C[C@H]1CN(c2cccc3c2cnn3-c2ccccc2F)C(=O)N1Cc1ncco1 [Example 38, (4S)-1-[1-(2-fluorophenyl)-1H-indazol-4-yl]-4-methyl-3-(1,3-oxazol-2-ylmethyl)imidazolidin-2-one]	33	1390	–	–
Cc1nccnc1CN1CCN(c2cccc3c2cnn3-c2ccccc2F)C1=O [Example 43, 1-[1-(2-fluorophenyl)-1H-indazol-4-yl]-3-[(3-methylpyrazin-2-yl)methyl]imidazolidin-2-one]	–	915	71	–
O=C(CN1CCCN(c2cccc3c2cnn3-c2ccccc2F)C1=O)N1CC[C@H](F)C1 [Example 23, 1-[1-(2-fluorophenyl)-1H-indazol-4-yl]-3-{2-[(3S)-3-fluoropyrrolidin-1-yl]-2-oxoethyl}tetrahydropyrimidin-2(1H)-one]	–	1470	45	–
O=C1N(Cc2nnc(C3CC3)s2)CCN1c1cccc2c1cnn2-c1ccccc1F [Example 30, 1-[(5-cyclopropyl-1,3,4-thiadiazol-2-yl)methyl]-3-[1-(2-fluorophenyl)-1H-indazol-4-yl]imidazolidin-2-one]	80	1300	–	–
Cc1csc(CN2CCN(c3cccc4c3cnn4-c3ccccc3F)C2=O)n1 [Example 24, 1-[1-(2-fluorophenyl)-1H-indazol-4-yl]-3-[(4-methyl-1,3-thiazol-2-yl)methyl]imidazolidin-2-one]	62	338	–	–
Cc1nnc(CN2CCN(c3cccc4c3cnn4-c3ccccc3F)C2=O)s1 [Example 40, 1-[1-(2-fluorophenyl)-1H-indazol-4-yl]-3-[(5-methyl-1,3,4-thiadiazol-2-yl)methyl]imidazolidin-2-one]	41	3150	–	–
O=C1N(Cc2nc(C(F)(F)F)cs2)CCN1c1cccc2c1cnn2-c1ccccc1F [Example 14, 1-[1-(2-fluorophenyl)-1H-indazol-4-yl]-3-{[4-(trifluoromethyl)-1,3-thiazol-2-yl]methyl}imidazolidin-2-one]	–	618	60	–
O=C(CN1CCN(c2cccc3c2cnn3-c2ccccc2F)C1=O)NC1CC1 [Example 13, N-cyclopropyl-2-{3-[1-(2-fluorophenyl)-1H-indazol-4-yl]-2-oxoimidazolidin-1-yl}acetamide]	–	–	47	–
O=C1N(Cc2cocn2)CCN1c1cccc2c1cnn2-c1ccc(F)cc1F [Example 37, 1-[1-(2,4-difluorophenyl)-1H-indazol-4-yl]-3-(1,3-oxazol-4-ylmethyl)imidazolidin-2-one]	35	392	–	–
O=C(CN1CCN(c2cccc3c2cnn3-c2ccccc2F)C1=O)N1CCC[C@H](F)C1 [Example 54, 1-[1-(2-fluorophenyl)-1H-indazol-4-yl]-3-{2-[(3S)-3-fluoropiperidin-1-yl]-2-oxoethyl}imidazolidin-2-one]	–	–	57	–
Cc1cncc(CN2CCN(c3cccc4c3cnn4-c3ccccc3F)C2=O)n1 [Example 42, 1-[1-(2-fluorophenyl)-1H-indazol-4-yl]-3-[(6-methylpyrazin-2-yl)methyl]imidazolidin-2-one]	35	–	–	–
CC(C)(C)n1ncc2c(N3CCN(CC(=O)N4CC[C@H](F)C4)C3=O)cccc21 [Example 306, 1-(1-tert-butyl-1H-indazol-4-yl)-3-{2-[(3S)-3-fluoropyrrolidin-1-yl]-2-oxoethyl}imidazolidin-2-one]	–	20000	–	20000
O=C(CN1CCN(c2cccc3c2cnn3-c2ccccc2F)C1=O)N1CCC(C(F)(F)F)CC1 [Example 299, 1-[1-(2-fluorophenyl)-1H-indazol-4-yl]-3-{2-oxo-2-[4-(trifluoromethyl)piperidin-1-yl]ethyl}imidazolidin-2-one]	–	950	–	398
O=C(CN1CCN(c2cccc3c2cnn3C2CCCCC2)C1=O)N1CC[C@H](F)C1 [Example 294, 1-(1-cyclohexyl-1H-indazol-4-yl)-3-{2-[(3S)-3-fluoropyrrolidin-1-yl]-2-oxoethyl}imidazolidin-2-one]	–	7170	–	18300
O=C(CN1CCN(c2cccc3c2cnn3-c2ccccc2F)C1=O)NC1(C(F)(F)F)CCC1 [Example 353, 2-{3-[1-(2-fluorophenyl)-1H-indazol-4-yl]-2-oxoimidazolidin-1-yl}-N-[1-(trifluoromethyl)cyclobutyl]acetamide]	–	3310	–	1690
O=C(CN1CCN(c2cccc3c2cnn3-c2ccccc2F)C1=O)NC1CCOCC1 [Example 320, 2-{3-[1-(2-fluorophenyl)-1H-indazol-4-yl]-2-oxoimidazolidin-1-yl}-N-(tetrahydro-2H-pyran-4-yl)acetamide]	–	16800	–	10100
O=C(CN1CCN(c2cccc3c2cnn3-c2ccccc2F)C1=O)N1CCC[C@H](O)C1 [Example 290, 1-[1-(2-fluorophenyl)-1H-indazol-4-yl]-3-{2-[(3S)-3-hydroxypiperidin-1-yl]-2-oxoethyl}imidazolidin-2-one]	–	4150	–	13500
CC(C)(C)CCn1ncc2c(N3CCN(CC(=O)N4CCCC4)C3=O)cccc21 [Example 305, 1-[1-(3,3-dimethylbutyl)-1H-indazol-4-yl]-3-[2-oxo-2-(pyrrolidin-1-yl)ethyl]imidazolidin-2-one]	–	3670	–	3330
O=C(CN1CCN(c2cccc3c2cnn3-c2ccccc2F)C1=O)NC1CCC1 [Example 322, N-cyclobutyl-2-{3-[1-(2-fluorophenyl)-1H-indazol-4-yl]-2-oxoimidazolidin-1-yl}acetamide]	–	973	–	1890
